Earlier results as cited in patent publication US8697633B2, “Dissolution of arterial plaque” (AtheraNova Operations, Inc., priority 2005, dated 2014).

How the values were obtained:
[1] = test system: atherosclerotic plaque; conditions: dietary HDCA, relative to mice not provided HDCA
[2] = test system: atherosclerotic plaque; conditions: 40 mg/day

Row | SMILES | rate of formation of atherosclerotic plaque [1] | modulation of LDL, HDL, and triglyceride levels [2] | reduction of normalized total atheroma volume ([2]; after 2 years, SD=11.1) [%] | reduction of plaque volume in the most diseased segments of vessels ([2]; after 2 years, SD=13.7) [%]
1 | C[C@H](CCC(=O)O)[C@H]1CC[C@H]2[C@@H]3C[C@H](O)[C@@H]4C[C@H](O)CC[C@]4(C)[C@H]3CC[C@]12C [HDCA, hyodeoxycholic acid] | reduced rate of formation of atherosclerotic plaque | – | – | –
2 | CC(C)c1nc(N(C)S(C)(=O)=O)nc(-c2ccc(F)cc2)c1/C=C/[C@@H](O)C[C@@H](O)CC(=O)O [rosuvastatin] | – | particularly effective | 6.7 | 8.5
